Read-outs that look alike come from different tables or passages of the source.

Data set [1] deals with A549 lung cancer cell line. Description: Cell viability assay (crystal violet). The following applies: catechol at concentrations as low as 100 μM, 24 hours. The format is cell-based.
Data set [2] deals with glioblastoma (Mo59K) cancer cell line. The data set is described as follows: Cell viability assay (crystal violet). The format is cell-based. The settings on record: catechol at concentrations as low as 100 μM, 24 hours.
In data set [3] the test system is rhabdomyosarcoma (RD) cancer cell line. Description: Cell viability assay (crystal violet). Format: cell-based. The settings on record: catechol at concentrations as low as 100 μM, 24 hours.
Data set [4] concerns fibroblast control cell line (Fibroblasts). Description: Cell viability assay (crystal violet). The settings on record: catechol at concentrations as low as 100 μM, 24 hours. Format: cell-based.
Data set [5] deals with SalAR circuit. Description: GFP output after induction of the SalAR circuit (pSalAR-GFP) in parent cells. Format: cell-based, Escherichia coli. The text has this:
FIGS. 33A-33E: The levels of GFP over time after induction of the SalAR circuit can act as an indicator for the kinetics of catechol production. Production of GFP by parent cells with the pSalAR-GFP plasmid and FIG. 33A without an additional glycolysis pathway (pSEVA224) or FIG. 33B with an additional glycolysis pathway (pSEVA224-GB3). […] FIG. 33C Ratio of fluorescent output of induced cells versus cells not induced with SA. In parent cells GFP production increased by about 1.5 and 2-fold when induced with 100 μM and 500 μM SA, respectively. FIG. 33D Catechol production by E. coli. LB agar plates with aspirin and salicylic acid have no color (top), while catechol is distinctly brown (bottom). When E. coli with pSalAR-GFP was plated on agar with inducers 2 mM Aspirin (bottom middle) or 2 mM salicylic acid (bottom right) catechol was produced and diffused out of the cell, tinting the agar brown. […] FIG. 33E The color of the supernatant darkens as inducer concentration increases, indicating production and export of catechol. SA: salicylic acid, ASA: acetylsalicylic acid (aspirin).

Data set [6] has as its system fibroblasts; A549, Mo59K, and RD cancer cells.
For data set [7] the test system is unchanged. Description: Cell viability assay with supplements, all mammalian cell lines. The following applies: PBS control.
Data set [8] deals with ICeuI− Glycolysis− strain. The data set is described as follows: D-cycloserine treatment, plate counts over time. The format is cell-based, Escherichia coli. The settings on record: 200 μg/mL D-cycloserine at time 0 and 1.5 hours.
Data set [9] concerns ICeuI+ Glycolysis− strain. Description: D-cycloserine treatment, plate counts over time. The format is cell-based, Escherichia coli. The following applies: 200 μg/mL D-cycloserine at time 0 and 1.5 hours.
Data set [10] concerns ICeuI− Glycolysis+ strain. Description: D-cycloserine treatment, plate counts over time. Format: cell-based, Escherichia coli. The following applies: 200 μg/mL D-cycloserine at time 0 and 1.5 hours.
Data set [11] concerns ICeuI+ Glycolysis+ strain. Description: D-cycloserine treatment, plate counts over time. Format: cell-based, Escherichia coli. The settings on record: 200 μg/mL D-cycloserine at time 0 and 1.5 hours.
Data set [12] has as its system parent cells. The data set is described as follows: Screen of D-cycloserine concentrations to maintain SimCell purity. Format: cell-based, Escherichia coli. The following applies: little to no increase in OD. As to the method:
A protocol for minimal cell purification from Heinemann and Ankenbauer was adapted for SimCell purification (12)^a. Mixed cultures of SimCells and parent cells were treated with D-cycloserine to kill actively dividing cells. D-cycloserine was added at a concentration of 200 μg/mL and cells were left to incubate at 37° C. and shake for 1.5 hours before D-cycloserine was added again at the same concentration. After 24 hours of treatment with D-cycloserine, cells were spun down and washed twice with phosphate buffered saline (PBS). When pure SimCell cultures were induced for protein expression, 25 μg/mL D-cycloserine was added every two days to prevent parent cell growth but allow SimCells to be functional.
Further optimization of D-cycloserine concentration ensured pure SimCell populations in the following experiments, and excluded the contribution made by remaining parent cells in SimCell populations. After a screen of D-cycloserine concentrations, 25 μg/mL was determined to be the point where parent cells were killed in the culture evidenced by little to no increase in OD (Table S3) but also permitted protein production or other activities in SimCells. By using D-cycloserine which targets active, parent cells, we were able to distinguish activity from SimCells on a larger, culture-level scale for further characterization.

For `Oc1ccccc1O` [catechol, 1,2-dihydroxybenzene], the cell viability entry in [1] is on record as “significantly decreased the viability”; in [2], “significantly decreased the viability”; in [3], “significantly decreased the viability”; in [4], “less of an adverse effect”.

Consider `O=C(O)c1ccccc1O` [SA, salicylic acid], for which the “increase in GFP production, induced versus not induced” value in data set [5] (100 μM SA) is on record as “about 1.5 fold”; in data set [5] (500 μM SA), about 2 fold. Also, the “effect of supplement alone on viability of mammalian cell lines” value was “no adverse effects” in data set [6] and “did not cause cell death” in [7].

As to `CC(=O)Oc1ccccc1C(=O)O` [aspirin, acetylsalicylic acid], in data set [6], the “effect of supplement alone on viability of mammalian cell lines” value is given as “no adverse effects”.

As for `N[C@@H]1CONC1=O` [D-cycloserine], the CFU/mL is recorded as 1.8 × 10^9 CFU/mL in data set [8] (time 0 hr); 1.1 × 10^9 CFU/mL in [8] (time 1.5 hr); 1.3 × 10^7 CFU/mL in data set [8] (time 5 hr); 1.6 × 10^7 CFU/mL in data set [8] (time 24 hr); 3.5 × 10^5 CFU/mL in data set [9] (time 0 hr); 4.1 × 10^3 CFU/mL in data set [9] (time 1.5 hr). For the same compound, the CFU/mL in [9] (time 5 hr) was 7.2 × 10^2 CFU/mL; in data set [9] (time 24 hr), 0 CFU/mL; in [10] (time 0 hr), 1.0 × 10^9 CFU/mL; in data set [10] (time 1.5 hr) it was 6.9 × 10^8 CFU/mL; in [10] (time 5 hr) it was 4 × 10^7 CFU/mL; in data set [10] (time 24 hr), 8.3 × 10^4 CFU/mL. Further, the CFU/mL is given as 3.08 × 10^5 CFU/mL in data set [11] (time 0 hr), 2.7 × 10^3 CFU/mL in data set [11] (time 1.5 hr), 7.5 × 10^2 CFU/mL in [11] (time 5 hr) and 0 CFU/mL in [11] (time 24 hr). Besides, the “D-cycloserine concentration at which parent cells were killed while SimCell activity was permitted” value in [12] was determined as 25 µg/mL.

The values above are taken from patent US12503704B2, “Modified cell” (Oxford University Innovation Limited, priority 2019, dated 2025).
